Data taken from patent EP1561465A2, “Methods of use of fluoroquinolone compounds against bacteria” (LG Life Sciences, Ltd., priority 1999, dated 2001).
Converted amounts (≈) assume the structure as drawn. Read-outs that look alike come from different tables or passages of the source.

Tests used:
Assay type in all cases: cell-based
Streptococcus pneumoniae [1] = experiment: MIC by broth microdilution (NCCLS), dried MicroScan panels, clinical isolates 1998-1999; conditions: for MIC90: Streptococcus pneumoniae
E. coli = experiment: microbe, parasite or virus in culture; conditions: for MIC50 / MIC: Escherichia coli
Enterococcus faecalis = experiment: MIC by NCCLS broth microdilution, 1100 Japanese clinical isolates 1997-1998; conditions: for MIC90 / MIC50: Enterococcus faecalis
Campylobacter jejuni = experiment: MIC by agar dilution (NCCLS M7-A4), 5% sheep blood, microaerophilic 48 h; conditions: Campylobacter jejuni (n=91)
Klebsiella pneumoniae = experiment: MIC by NCCLS broth microdilution, 1100 Japanese clinical isolates 1997-1998; conditions: Klebsiella pneumoniae (n=35)
Staphylococcus aureus = experiment: MIC by agar dilution (NCCLS), 411 isolates Buenos Aires 1998-99; conditions: for MIC90: Staphylococcus aureus
Hafnia alvei = experiment: MIC by agar dilution (NCCLS M7-A4), 288 enteropathogenic isolates, eight quinolones; conditions: Hafnia alvei (n = 32)
Enterobacter aerogenes = experiment: MIC by NCCLS broth microdilution, 1100 Japanese clinical isolates 1997-1998; conditions: Enterobacter aerogenes (n=35)
Streptococcus pneumoniae [2] = experiment: MIC by agar dilution (NCCLS), 411 isolates Buenos Aires 1998-99; conditions: for MIC / MIC90: Streptococcus pneumoniae; for MIC90: read-out: MIC90
[3] = Streptococcus pneumoniae (302 isolates)
[4] = Enterococcus faecalis ciprofloxacin resistant (n=15)
[5] = Enterococcus faecalis ciprofloxacin susceptible (n=24)
[6] = S. aureus, Methicillin resistant (n = 14)
[7] = S. aureus, Methicillin susceptible (n = 66)
[8] = Streptococcus pneumoniae (n = 90)

CO/N=C1\CN(c2nc3c(cc2F)c(=O)c(C(=O)O)cn3C2CC2)CC1CN (racemic) [Gemifloxacin, (R,S)-7-(3-aminomethyl-4-methoxyiminopyrrolidin-1-yl)-1-cyclopropyl-6-fluoro-4-oxo-1,4-dihydro-1,8-naphthyridine-3-carboxylic acid]
more active than grepafloxacin (Streptococcus pneumoniae [1]; S. pneumoniae): two-fold | more active than levofloxacin (Streptococcus pneumoniae [1]; S. pneumoniae): 16 fold | more active than trovafloxacin (Streptococcus pneumoniae [1]; S. pneumoniae): four-fold | MIC50 (Streptococcus pneumoniae [1]; [3]): 0.03 µg/mL (≈ 0.077 µM) | MIC Range (Streptococcus pneumoniae [1]; [3]): ≤0.0015 to 0.12 µg/mL | MIC90 (Streptococcus pneumoniae [1]; Erythromycin-resistant (86)): 0.03 µg/mL (≈ 0.077 µM) | MIC90 (Streptococcus pneumoniae [1]; Erythromycin-sensitive (216)): 0.06 µg/mL (≈ 0.154 µM) | MIC90 (Streptococcus pneumoniae [1]; Penicillin-intermediate (124)): 0.03 µg/mL (≈ 0.077 µM) | MIC90 (Streptococcus pneumoniae [1]; Penicillin-resistant (80)): 0.06 µg/mL (≈ 0.154 µM) | MIC90 (Streptococcus pneumoniae [1]; Penicillin-sensitive (98)): 0.06 µg/mL (≈ 0.154 µM) | MIC90 (Streptococcus pneumoniae [1]; [3]): 0.06 µg/mL (≈ 0.154 µM) | MIC90 (E. coli; E. coli (13 strains), quinolone-resistant): 0.25 µg/mL (≈ 0.642 µM) | MIC50 (E. coli; E. coli (13 strains), quinolone-resistant, read-out: MIC50): 0.031 µg/mL (≈ 0.0796 µM) | MIC (E. coli; E. coli KU1029, mutant type SP (spontaneous mutant in the DNA gyrase)): 0.031 µg/mL (≈ 0.0796 µM) | MIC (E. coli; E. coli KU1030, mutant type SP): 0.031 µg/mL (≈ 0.0796 µM) | MIC (E. coli; E. coli KU1031, mutant type SP): 0.031 µg/mL (≈ 0.0796 µM) | MIC (E. coli; E. coli KU1032, mutant type SP): 0.125 µg/mL (≈ 0.321 µM) | MIC (E. coli; E. coli KU1033, mutant type SP): 0.016 µg/mL (≈ 0.0411 µM) | MIC (E. coli; E. coli KU1034, mutant type GA (DNA gyrase A)): 0.25 µg/mL (≈ 0.642 µM) | MIC (E. coli; E. coli KU1035, mutant type GA (DNA gyrase A)): 0.25 µg/mL (≈ 0.642 µM) | MIC (E. coli; E. coli KU1036, mutant type GB (DNA gyrase B)): 0.031 µg/mL (≈ 0.0796 µM) | MIC (E. coli; E. coli KU1038, mutant type SP): 0.031 µg/mL (≈ 0.0796 µM) | MIC (E. coli; E. coli KU1039, mutant type SP): 0.125 µg/mL (≈ 0.321 µM) | MIC (E. coli; E. coli KU1040, mutant type SP): ≤ 0.008 µg/mL | MIC (E. coli; E. coli KU1041, mutant type SP): 0.25 µg/mL (≈ 0.642 µM) | MIC (E. coli; E. coli KU1042, mutant type SP): 0.063 µg/mL (≈ 0.162 µM) | MIC50 (E. coli; E. coli mutated in the DNA gyrase): 0.032 µg/mL (≈ 0.0822 µM) | MIC90 (Enterococcus faecalis): 0.125 µg/mL (≈ 0.321 µM) | MIC Range (Enterococcus faecalis; [4]): 0.063 to 32 µg/mL | MIC Range (Enterococcus faecalis; [5]): 0.063 to 0.125 µg/mL | MIC50 (Enterococcus faecalis; [4]): 1 µg/mL (≈ 2.57 µM) | MIC90 (Enterococcus faecalis; Enterococcus faecalis ciprofloxacin resistant (n=15), read-out: MIC90): 8 µg/mL (≈ 20.5 µM) | MIC50 (Enterococcus faecalis; [5]): 0.063 µg/mL (≈ 0.162 µM) | % Susceptible (Campylobacter jejuni): 31.86% | MIC50 (Campylobacter jejuni): 32 µg/mL (≈ 82.2 µM) | MIC90 (Campylobacter jejuni): 128 µg/mL (≈ 329 µM) | MIC Range (Campylobacter jejuni): 0.03 to 128 µg/mL | MIC50 (Klebsiella pneumoniae): 0.032 µg/mL (≈ 0.0822 µM) | MIC Range (Klebsiella pneumoniae): 0.016 to 1 µg/mL | MIC90 (Klebsiella pneumoniae; read-out: MIC90): 0.063 µg/mL (≈ 0.162 µM) | Resistance (%) (Staphylococcus aureus; [6]): 0% | Resistance (%) (Staphylococcus aureus; [7]): 0% | MIC Range (Staphylococcus aureus; Staphylococcus aureus (n = 80)): ≤0.004 to 2 µg/mL | MIC90 (Staphylococcus aureus; [6]): 2 µg/mL (≈ 5.14 µM) | MIC90 (Staphylococcus aureus; [7]): 0.03 µg/mL (≈ 0.077 µM) | MIC90 (Staphylococcus aureus; Staphylococcus aureus (n = 80)): 1 µg/mL (≈ 2.57 µM) | % Susceptible (Hafnia alvei): 100% | MIC50 (Hafnia alvei): 0.03 µg/mL (≈ 0.077 µM) | MIC90 (Hafnia alvei): 0.03 µg/mL (≈ 0.077 µM) | MIC Range (Hafnia alvei): ≤0.015 to 0.06 µg/mL | MIC Range (Enterobacter aerogenes): 0.016 to 0.25 µg/mL | MIC50 (Enterobacter aerogenes; Klebsiella aerogenes): 0.032 µg/mL (≈ 0.0822 µM) | MIC90 (Enterobacter aerogenes; Klebsiella aerogenes): 0.063 µg/mL (≈ 0.162 µM) | MIC (Streptococcus pneumoniae [2]): 0.125 µg/mL (≈ 0.321 µM) | MIC Range (Streptococcus pneumoniae [2]; [8]): ≤0.004 to 0.125 µg/mL | MIC (Streptococcus pneumoniae [2]; Ciprofloxacin-resistant S. pneumoniae, Strain 1, read-out: MIC): 0.03 µg/mL (≈ 0.077 µM) | MIC (Streptococcus pneumoniae [2]; Ciprofloxacin-resistant S. pneumoniae, Strain 2, read-out: MIC): 0.06 µg/mL (≈ 0.154 µM) | MIC (Streptococcus pneumoniae [2]; Ciprofloxacin-resistant S. pneumoniae, Strain 4, read-out: MIC): 0.06 µg/mL (≈ 0.154 µM) | MIC90 (Streptococcus pneumoniae [2]; S. pneumoniae, Penicillin intermediate (n = 17)): 0.03 µg/mL (≈ 0.077 µM) | MIC90 (Streptococcus pneumoniae [2]; S. pneumoniae, Penicillin resistant (n = 4)): 0.03 µg/mL (≈ 0.077 µM) | MIC90 (Streptococcus pneumoniae [2]; S. pneumoniae, Penicillin susceptible (n = 69)): 0.03 µg/mL (≈ 0.077 µM) | MIC90 (Streptococcus pneumoniae [2]; [8]): 0.03 µg/mL (≈ 0.077 µM)
